This assay has as its target NR1/NR2A (Homo sapiens (Human), UniProt Q05586+Q12879). As to the kind of experiment: FDSS Ca2+ influx inhibition assay in HEK293 cells expressing NR1/NR2A. The format is cell-based. Conditions: 3 μM glutamate, 3 μM glycine, 1 mM Ca2+. How it is done:
Cell Culture and plating: HEK293 cells expressing NR1/NR2A (Chantest, Cleveland, Ohio) were grown to 70-80% confluency as an adherent monolayer in standard tissue culture flasks at 37° C., 5% CO2 per supplier's instructions.
After induction, cell culture medium was removed and cells were rinsed once with Ca^2+ and Mg^2+-free Dulbecco's phosphate buffered saline. Cells were then removed from the flask using TrypLE™ Express (Life Technologies) according to the manufacturer's instructions and collected to 50 ml centrifuge tubes. Following two washes in Ca^2+/Mg^2+-free HBSS with 20 mM HEPES (HHnoCa), cells were counted and viability assessed using trypan blue. To load cells with Ca^2+-sensitive dye, they were resuspended in fluo-8 plus Component B (AAT Bioquest Products) diluted in HHnoCa and incubated 15 minutes at 37° C., followed by 30 minutes at room temp (in dark). Cells were then washed and resuspended in HHnoCa to remove extracellular dye and plated in 384-well plates (Falcon, uncoated) at 20,000-30,000 cells/well in a final volume of 25 μL/well.
FDSS Assay: To each well of the plate, 10 μL test compound, control (MK801) or HHnoCa buffer was added to a final concentration of 10 μM with a final concentration of DMSO of 0.1%. Following 10 minutes pre-incubation in the dark, plates are loaded onto the Hamamatsu FDSS 6000. After collecting baseline fluorescence images, 3 μM glutamate, 3 μM glycine, and 1 mM Ca^2+ in HHnoCa buffer is added to each well, and Ca^2+ is recorded for 3 minutes. Data were processed by computing ratio of fluorescence at the end of data collection to baseline fluorescence to assess degree of Ca^2+ influx inhibition relative to that observed in MK801.

[1] abbreviates: inhibition relative to MK801, read-out: NR2A IC50.

Molecules are shown by their SMILES. Where two headings read alike, the source gives them in different places.

Chain of NR1/NR2A (Q12879 23-1464, other chains not shown): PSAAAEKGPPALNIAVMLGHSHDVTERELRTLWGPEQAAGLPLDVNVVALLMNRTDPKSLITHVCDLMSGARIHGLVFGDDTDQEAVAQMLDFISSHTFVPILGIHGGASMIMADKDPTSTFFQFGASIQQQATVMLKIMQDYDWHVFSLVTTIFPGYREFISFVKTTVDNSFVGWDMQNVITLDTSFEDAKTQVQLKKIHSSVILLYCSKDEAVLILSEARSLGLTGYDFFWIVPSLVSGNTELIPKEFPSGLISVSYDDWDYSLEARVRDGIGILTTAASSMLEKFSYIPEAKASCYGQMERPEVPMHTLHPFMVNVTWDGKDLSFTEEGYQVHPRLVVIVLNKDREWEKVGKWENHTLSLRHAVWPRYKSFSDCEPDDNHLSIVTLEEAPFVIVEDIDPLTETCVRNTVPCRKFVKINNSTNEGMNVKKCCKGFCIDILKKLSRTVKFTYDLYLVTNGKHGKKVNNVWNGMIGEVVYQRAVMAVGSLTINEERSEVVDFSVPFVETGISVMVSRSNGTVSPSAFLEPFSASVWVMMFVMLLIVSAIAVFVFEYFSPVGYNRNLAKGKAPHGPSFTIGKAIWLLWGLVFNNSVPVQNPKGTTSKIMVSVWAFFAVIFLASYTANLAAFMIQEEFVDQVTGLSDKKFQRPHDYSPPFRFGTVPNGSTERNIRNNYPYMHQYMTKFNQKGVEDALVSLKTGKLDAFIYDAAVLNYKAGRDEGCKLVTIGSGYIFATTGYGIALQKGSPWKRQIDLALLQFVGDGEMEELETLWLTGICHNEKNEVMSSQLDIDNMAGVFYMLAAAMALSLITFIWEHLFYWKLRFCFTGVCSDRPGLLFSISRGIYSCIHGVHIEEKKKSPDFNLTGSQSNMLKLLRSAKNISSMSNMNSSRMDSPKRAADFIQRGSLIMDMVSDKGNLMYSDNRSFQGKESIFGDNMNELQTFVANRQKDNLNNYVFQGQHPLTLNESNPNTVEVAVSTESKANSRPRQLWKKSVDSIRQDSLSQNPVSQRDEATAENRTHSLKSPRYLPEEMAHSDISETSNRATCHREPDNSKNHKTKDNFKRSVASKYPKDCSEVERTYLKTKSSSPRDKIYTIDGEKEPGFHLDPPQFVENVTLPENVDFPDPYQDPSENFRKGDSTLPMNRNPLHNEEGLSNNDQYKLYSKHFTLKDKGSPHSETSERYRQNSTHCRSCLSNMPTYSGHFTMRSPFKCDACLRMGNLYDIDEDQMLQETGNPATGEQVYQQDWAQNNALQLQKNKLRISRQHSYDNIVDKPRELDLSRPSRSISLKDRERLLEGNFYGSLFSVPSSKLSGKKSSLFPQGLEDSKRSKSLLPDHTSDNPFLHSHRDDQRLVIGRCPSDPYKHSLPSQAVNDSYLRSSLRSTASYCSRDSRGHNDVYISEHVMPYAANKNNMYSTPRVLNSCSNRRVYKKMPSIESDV

With `Cc1ccc(CNC(=O)c2cnc(CNS(=O)(=O)c3ccc(F)c(Cl)c3)cn2)n1C` [5-(3-chloro-4-fluorobenzenesulfon-amidomethyl)-N-[(1,5-dimethyl-1H-pyrrol-2-yl)methyl]pyrazine-2-carboxamide], the IC50 (read-out: Binned Activity) is 0.1 to 1 µM.

For the compound `Cn1ccnc1CNC(=O)c1cnc(CNS(=O)(=O)c2ccc(F)c(Cl)c2)cn1` [5-(3-chloro-4-fluorobenzenesulfon-amidomethyl)-N-[(1-methyl-1H-imidazol-2-yl)methyl]pyrazine-2-carboxamide], the IC50 is 10 µM under setting [1] and more than 10 µM (read-out: Binned Activity).

Take `Cn1cnc(CNC(=O)c2cnc(CNS(=O)(=O)c3ccc(F)c(Cl)c3)cn2)c1` [5-(3-chloro-4-fluorobenzenesulfon-amidomethyl)-N-[(1-methyl-1H-imidazol-4-yl)methyl]pyrazine-2-carboxamide]: the IC50 under setting [1] was 10 µM and the IC50 (read-out: Binned Activity) was more than 10 µM.

`Cn1cnc(CNC(=O)c2ccc(CNS(=O)(=O)c3ccc(F)c(Cl)c3)cn2)c1` [5-(3-chloro-4-fluorobenzenesulfon-amidomethyl)-N-[(1-methyl-1H-imidazol-4-yl)methyl]pyridine-2-carboxamide]: the IC50 runs as follows: under setting [1], 10 µM; (read-out: Binned Activity) more than 10 µM.

For `Cn1cncc1CNC(=O)c1cnc(CNS(=O)(=O)c2ccc(F)c(Cl)c2)cn1` [5-(3-chloro-4-fluorobenzenesulfon-amidomethyl)-N-[(1-methyl-1H-imidazol-5-yl)methyl]pyrazine-2-carboxamide], under “read-out: Binned Activity”, the IC50 lay in the range of 1 to 10 µM.

Turning to `Cn1cncc1CNC(=O)c1ccc(CNS(=O)(=O)c2ccc(F)c(Cl)c2)cn1` [5-(3-chloro-4-fluorobenzenesulfon-amidomethyl)-N-[(1-methyl-1H-imidazol-5-yl)methyl]pyridine-2-carboxamide], under “read-out: Binned Activity”, the IC50 lay in the range of 1 to 10 µM.

Regarding `Cn1cc(CNC(=O)c2ccc(CNS(=O)(=O)c3ccc(F)c(Cl)c3)cn2)cn1` [5-(3-chloro-4-fluorobenzenesulfon-amidomethyl)-N-[(1-methyl-1H-pyrazol-4-yl)methyl]pyridine-2-carboxamide], for the setting “read-out: Binned Activity”, the IC50 was in the range of 1 to 10 µM.

On to `Cn1nccc1CNC(=O)c1cnc(CNS(=O)(=O)c2ccc(F)c(Cl)c2)cn1` [5-(3-chloro-4-fluorobenzenesulfon-amidomethyl)-N-[(1-methyl-1H-pyrazol-5-yl)methyl]pyrazine-2-carboxamide], for which the IC50 is 10 µM under setting [1] and more than 10 µM (read-out: Binned Activity).

On to `Cn1nccc1CNC(=O)c1ccc(CNS(=O)(=O)c2ccc(F)c(Cl)c2)cn1` [5-(3-chloro-4-fluorobenzenesulfon-amidomethyl)-N-[(1-methyl-1H-pyrazol-5-yl)methyl]pyridine-2-carboxamide], for which the IC50 under setting [1] was 10 µM and the IC50 (read-out: Binned Activity) was more than 10 µM.

Turning to `Cn1cccc1CNC(=O)c1cnc(CNS(=O)(=O)c2ccc(F)c(Cl)c2)cn1` [5-(3-chloro-4-fluorobenzenesulfon-amidomethyl)-N-[(1-methyl-1H-pyrrol-2-yl)methyl]pyrazine-2-carboxamide], the IC50 (read-out: Binned Activity) fell in the range of 1 to 10 µM.

As for `Cn1cccc1CNC(=O)c1ccc(CNS(=O)(=O)c2ccc(F)c(Cl)c2)cn1` [5-(3-chloro-4-fluorobenzenesulfon-amidomethyl)-N-[(1-methyl-1H-pyrrol-2-yl)methyl]pyridine-2-carboxamide], under “read-out: Binned Activity”, the IC50 lay within 1 to 10 µM.

With `C[C@@H](NC(=O)c1cnc(CNS(=O)(=O)c2ccc(F)c(Cl)c2)cn1)c1cncs1` [5-(3-chloro-4-fluorobenzenesulfon-amidomethyl)-N-[(1R)-1-(1,3-thiazol-5-yl)ethyl]pyrazine-2-carboxamide], the IC50 (read-out: Binned Activity) was more than 10 µM.

Consider `C[C@@H](NC(=O)c1ccc(CNS(=O)(=O)c2ccc(F)c(Cl)c2)cn1)c1cncs1` [5-(3-chloro-4-fluorobenzenesulfon-amidomethyl)-N-[(1R)-1-(1,3-thiazol-5-yl)ethyl]pyridine-2-carboxamide], for which the IC50 was 10 µM under setting [1] and more than 10 µM (read-out: Binned Activity).

For the compound `COc1cc(CNC(=O)c2cnc(CNS(=O)(=O)c3ccc(F)c(Cl)c3)cn2)ccn1` [5-(3-chloro-4-fluorobenzenesulfon-amidomethyl)-N-[(2-methoxypyridin-4-yl)methyl]pyrazine-2-carboxamide], the IC50 (read-out: Binned Activity) is 0.1 to 1 µM.

Consider `COc1cc(CNC(=O)c2ccc(CNS(=O)(=O)c3ccc(F)c(Cl)c3)cn2)ccn1` [5-(3-chloro-4-fluorobenzenesulfon-amidomethyl)-N-[(2-methoxypyridin-4-yl)methyl]pyridine-2-carboxamide], for which, under “read-out: Binned Activity”, the IC50 fell in the range of 1 to 10 µM.

For `Cc1nc(CNC(=O)c2cnc(CNS(=O)(=O)c3ccc(F)c(Cl)c3)cn2)cs1` [5-(3-chloro-4-fluorobenzenesulfon-amidomethyl)-N-[(2-methyl-1,3-thiazol-4-yl)methyl]pyrazine-2-carboxamide], the IC50 under setting [1] turned out to be 10 µM and the IC50 (read-out: Binned Activity) was more than 10 µM.

For the compound `Cc1nc(CNC(=O)c2ccc(CNS(=O)(=O)c3ccc(F)c(Cl)c3)cn2)cs1` [5-(3-chloro-4-fluorobenzenesulfon-amidomethyl)-N-[(2-methyl-1,3-thiazol-4-yl)methyl]pyridine-2-carboxamide], the IC50 runs as follows: under setting [1], 10 µM; (read-out: Binned Activity) more than 10 µM.

Consider `Cc1ncc(CNC(=O)c2cnc(CNS(=O)(=O)c3ccc(F)c(Cl)c3)c(C(F)(F)F)n2)s1` [5-(3-chloro-4-fluorobenzenesulfon-amidomethyl)-N-[(2-methyl-1,3-thiazol-5-yl)methyl]-6-(trifluoromethyl)pyrazine-2-carboxamide], for which, for the setting “read-out: Binned Activity”, the IC50 was 0.1 to 1 µM.

Take `Cc1ncc(CNC(=O)c2ccc(CNS(=O)(=O)c3ccc(F)c(Cl)c3)cn2)s1` [5-(3-chloro-4-fluorobenzenesulfon-amidomethyl)-N-[(2-methyl-1,3-thiazol-5-yl)methyl]pyridine-2-carboxamide]: where the note is “read-out: Binned Activity”, the IC50 is 0.1 to 1 µM.

On to `Cc1ncc(CNC(=O)c2ncc(CNS(=O)(=O)c3ccc(F)c(Cl)c3)cn2)s1` [5-(3-chloro-4-fluorobenzenesulfon-amidomethyl)-N-[(2-methyl-1,3-thiazol-5-yl)methyl]pyrimidine-2-carboxamide], for which the IC50 reads like this: under setting [1], 10 µM; (read-out: Binned Activity) more than 10 µM.

With `COc1ccc(CNC(=O)c2cnc(CNS(=O)(=O)c3ccc(F)c(Cl)c3)cn2)cc1` [5-(3-chloro-4-fluorobenzenesulfon-amidomethyl)-N-[(4-methoxyphenyl)methyl] pyrazine-2-carboxamide], the IC50 was 10 µM under setting [1] and more than 10 µM (read-out: Binned Activity).

In the case of `COc1ccc(CNC(=O)c2ccc(CNS(=O)(=O)c3ccc(F)c(Cl)c3)cn2)cc1` [5-(3-chloro-4-fluorobenzenesulfon-amidomethyl)-N-[(4-methoxyphenyl)methyl] pyridine-2-carboxamide], the IC50 runs as follows: under setting [1], 10 µM; (read-out: Binned Activity) more than 10 µM.

With `Cc1csc(CNC(=O)c2cnc(CNS(=O)(=O)c3ccc(F)c(Cl)c3)cn2)n1` [5-(3-chloro-4-fluorobenzenesulfon-amidomethyl)-N-[(4-methyl-1,3-thiazol-2-yl)methyl]pyrazine-2-carboxamide], the IC50 under setting [1] stood at 10 µM.

For `Cc1csc(CNC(=O)c2ccc(CNS(=O)(=O)c3ccc(F)c(Cl)c3)cn2)n1` [5-(3-chloro-4-fluorobenzenesulfon-amidomethyl)-N-[(4-methyl-1,3-thiazol-2-yl)methyl]pyridine-2-carboxamide], the IC50 reads like this: under setting [1], 10 µM; (read-out: Binned Activity) more than 10 µM.

On to `Cc1ncsc1CNC(=O)c1cnc(CNS(=O)(=O)c2ccc(F)c(Cl)c2)cn1` [5-(3-chloro-4-fluorobenzenesulfon-amidomethyl)-N-[(4-methyl-1,3-thiazol-5-yl)methyl]pyrazine-2-carboxamide], for which the IC50 reads like this: under setting [1], 10 µM; (read-out: Binned Activity) more than 10 µM.

With `Cc1ncsc1CNC(=O)c1ccc(CNS(=O)(=O)c2ccc(F)c(Cl)c2)cn1` [5-(3-chloro-4-fluorobenzenesulfon-amidomethyl)-N-[(4-methyl-1,3-thiazol-5-yl)methyl]pyridine-2-carboxamide], the IC50 under setting [1] turned out to be 10 µM and the IC50 (read-out: Binned Activity) is more than 10 µM.

As for `Cc1ccncc1CNC(=O)c1cnc(CNS(=O)(=O)c2ccc(F)c(Cl)c2)cn1` [5-(3-chloro-4-fluorobenzenesulfon-amidomethyl)-N-[(4-methylpyridin-3-yl)methyl]pyrazine-2-carboxamide], the IC50 (read-out: Binned Activity) is 0.1 to 1 µM.

For the compound `Cc1ccncc1CNC(=O)c1ccc(CNS(=O)(=O)c2ccc(F)c(Cl)c2)cn1` [5-(3-chloro-4-fluorobenzenesulfon-amidomethyl)-N-[(4-methylpyridin-3-yl)methyl]pyridine-2-carboxamide], for the setting “read-out: Binned Activity”, the IC50 fell in the range of 0.1 to 1 µM.

Consider `O=C(NCc1cncc(F)c1)c1cnc(CNS(=O)(=O)c2ccc(F)c(Cl)c2)cn1` [5-(3-chloro-4-fluorobenzenesulfon-amidomethyl)-N-[(5-fluoropyridin-3-yl)methyl]pyrazine-2-carboxamide], for which the IC50 (read-out: Binned Activity) lay in the range of 1 to 10 µM.

Take `Cc1nnc(CNC(=O)c2cnc(CNS(=O)(=O)c3ccc(F)c(Cl)c3)cn2)o1` [5-(3-chloro-4-fluorobenzenesulfon-amidomethyl)-N-[(5-methyl-1,3,4-oxadiazol-2-yl)methyl]pyrazine-2-carboxamide]: the IC50 (read-out: Binned Activity) lay within 1 to 10 µM.

These data come from US9963434B2, “N-arylmethyl sulfonamide negative modulators of NR2A” (LUC THERAPEUTICS, priority 2013, dated 2018).
